Experimental data reported in patent US20180228720A1, “MELANOGENESIS INHIBITOR” (TAKASAGO INTERNATIONAL CORPORATION, priority 2015, published 2018).

Key:
melanin production = settings: background art, Patent Documents 2 to 4; cited from earlier work
[1] = test system: melanocyte-containing human three-dimensional cultured epidermal model, LabCyte MELANO-MODEL 24; assay: Skin-whitening activity using melanocyte-containing human three-dimensional cultured epidermal tissue (amount of melanin, number of living cells by MTT); assay type: cell-based; settings: sample 0.10% (positive control), 2 weeks culture, relative to negative control
Method: A melanocyte-containing human three-dimensional cultured epidermal model, LabCyte […]-MODEL 24 (manufactured by Japan Tissue Engineering Co., Ltd.) was cultured in accordance with an instruction manual. That is, a culture cup having a human cultured epidermis charged therein was soaked in 1.5 mL of an improved melanin production-promoting medium, and an evaluation sample was added in the cup and exposed, followed by culture at 37° C. for 2 weeks in the presence of 5% carbon dioxide. The medium and the evaluation sample were exchanged once every two to three days. After completion of the culture, the number of living cells and the amount of melanin were measured according to the MTT assay by a method described in the instruction manual. Each measured value was calculated as a relative value (%) relative to a value of a negative control in which the evaluation sample was not exposed. The evaluation was performed by three times repetition.

B-16 melanoma cells = assay: Evaluation for melanin production-inhibitory activity against pigment cells; assay type: cell-based; settings: cultured 4 days with sample, relative to negative control
Method: With respect to the components (compounds) of Examples 1 to 3 and Reference Example 1 shown in Table 1, the following test was performed, thereby studying the evaluation for melanin production-inhibitory activity.
In a plastic culture flask (25 cm^2), B-16 melanoma cells in a number of 1×10^5 were seeded and cultured in a 10% serum-containing DMEM medium (manufactured by Nippon Suisan Kaisha, Ltd.) in the presence of 5% carbon dioxide at 37° C. One day after the culture, an evaluation sample diluted with ethanol was added, and the cells were further cultured for 4 days. After completion of the culture, the medium was removed, and the cells were rinsed with PBS (phosphate buffer solution). Thereafter, the cells were detached from the plate by using a medium containing trypsin and EDTA (ethylenediaminetetraacetic acid) and harvested by means of centrifugation. The resulting cells were rinsed three times with 1 mL of 5% trichloroacetic acid controlled at 4° C., rinsed twice with 1 mL of an ethanol/diethyl ether (3/1) solution, and then rinsed once with 1 mL of diethyl ether. After drying, 1 mL of 2N sodium hydroxide was added to dissolve the cells at 60° C. After allowing the solution to stand for cooling, an absorbance at 415 nm was measured, thereby measuring the amount of melanin. Each measured value was calculated as a relative value (%) relative to a value of a negative control in which the evaluation sample was not exposed. The evaluation was performed by three times repetition.

C[C@@H]1CC[C@H]2C(C)(C)[C@H]3C[C@@]12CC[C@@]3(C)O [cedrol]
Effect on melanin production (in words) (melanin production): exhibits a melanin production-inhibitory effect

C=CC(C)(O)CCC=C(C)CCC=C(C)C (stereo not shown) [nerolidol]
Effect on melanin production (in words) (melanin production): exhibits a melanin production-inhibitory effect

O=c1cc(CO)occ1O [Kojic acid]
Number of living cells (%) ([1]; MTT assay): 92.3 ± 8.8% | Amount of melanin (%) [1]: 48.4 ± 4.0%

OC[C@H]1O[C@@H](Oc2ccc(O)cc2)[C@H](O)[C@@H](O)[C@@H]1O [Arbutin]
Melanin inhibition ratio (%) (B-16 melanoma cells; 3.13 μg/mL): 39% | Melanin inhibition ratio (%) (B-16 melanoma cells; 6.25 μg/mL): 50% | Melanin inhibition ratio (%) (B-16 melanoma cells; 12.5 μg/mL): 71%
